Experimental data published in PubChem BioAssay (NCI).
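Five concentrations, 48 hours, 96-well plates. TGI denotes the concentration required for complete inhibition of growth.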

How the values were obtained:
Experiment in all cases: NCI tumour cell line growth inhibition, 48 h
NCI-H226 lung = tested on: NCI-H226 lung
HOP-62 NSCLC = tested on: HOP-62 NSCLC
K-562 leukemia = tested on: K-562 leukemia
OVCAR-5 ovarian = tested on: OVCAR-5 ovarian
OVCAR-4 ovarian = tested on: OVCAR-4 ovarian
HT29 colon = tested on: HT29 colon
MCF7 breast = tested on: MCF7 breast
SK-MEL-28 melanoma = tested on: SK-MEL-28 melanoma
SF-295 CNS = tested on: SF-295 CNS
SNB-75 CNS = tested on: SNB-75 CNS
MDA-N = tested on: MDA-N
HCT-116 colon = tested on: HCT-116 colon
PC-3 prostate = tested on: PC-3 prostate
MOLT-4 leukemia = tested on: MOLT-4 leukemia

Row | SMILES | TGI (NCI-H226 lung) | TGI (HOP-62 NSCLC) | TGI (K-562 leukemia) | TGI (OVCAR-5 ovarian) | TGI (OVCAR-4 ovarian) | TGI (HT29 colon) | TGI (MCF7 breast) | TGI (SK-MEL-28 melanoma) | TGI (SF-295 CNS) | TGI (SNB-75 CNS) | TGI (MDA-N) | TGI (HCT-116 colon) | TGI (PC-3 prostate) | TGI (MOLT-4 leukemia)
1 | CCN(CC)c1ccc2cc(-c3nnc(-c4ccccc4)o3)c(=O)oc2c1 | > 70.7 µM | > 74.1 µM | > 100 µM | > 100 µM | > 100 µM | > 100 µM | > 100 µM | > 100 µM | > 100 µM | 69 µM | > 100 µM | > 100 µM | > 100 µM | 
2 | CCC1c2[nH]c3ccccc3c2C[C@H]2C(=O)NC(COC(C)(C)C)C(=O)N12 (some centres not stated) | > 100 µM | > 100 µM | > 100 µM | > 100 µM | > 100 µM | > 100 µM | > 100 µM | > 100 µM | 65.4 µM | 78.6 µM |  | > 100 µM | 91.9 µM | 98.5 µM
3 | Cc1cn(C2CC(ON3C(=O)c4ccccc4C3=O)C(CO)O2)c(=O)[nH]c1=O (configuration not stated) | > 10 µM |  | > 10 µM | > 10 µM | > 10 µM | > 10 µM | > 10 µM |  | > 10 µM | > 10 µM |  | > 10 µM | > 10 µM | > 10 µM
4 | CSC1=C(SC)SC(=C2SC3=C(SC(=C4SCCS4)S3)S2)S1 | > 100 µM | > 100 µM |  | > 100 µM | > 100 µM | > 100 µM | > 100 µM | > 100 µM | > 100 µM | > 100 µM | > 100 µM | > 100 µM | > 100 µM | > 100 µM
5 | CC(=O)N(C(=O)CC(=O)N/N=C\c1ccc(Br)c(N(CCC#N)CCC#N)c1)c1ccc(Cl)cc1 | > 100 µM | > 100 µM | > 100 µM | 55.9 µM |  |  | > 100 µM | > 100 µM | > 100 µM | > 100 µM | > 100 µM | > 100 µM | > 100 µM | > 100 µM
6 | OCC1OC(n2cnc3c2NC=NC[C@H]3O)C(O)C1O (some centres not stated) | > 273 µM | > 419 µM | > 284 µM | > 450 µM | > 450 µM | > 450 µM | > 450 µM | > 450 µM | > 450 µM | > 450 µM |  | > 450 µM |  | > 450 µM
7 | CC(=O)Oc1ccccc1-c1cc2ccccc2oc1=O | > 100 µM | > 100 µM | > 100 µM | > 100 µM |  | > 100 µM | > 100 µM | > 100 µM | > 100 µM | > 100 µM | > 100 µM | > 100 µM | > 100 µM | > 100 µM
8 | CO[C@H]1[C@@H](O)[C@@H](C)O[C@@H](O[C@H]2CC[C@@]3(C)[C@H](CC[C@@H]4[C@@H]3CC[C@]3(C)[C@@H](C5=CC(=O)OC5)[C@@H](OC(C)=O)C[C@]43O)C2)[C@@H]1O | 0.411 µM | 0.0878 µM | 0.756 µM | 0.214 µM | 0.127 µM | 0.209 µM | > 50 µM | > 50 µM | 0.55 µM | 0.332 µM |  | 0.109 µM | 0.113 µM | 
9 | CC1=C(Br)C(Br)=C(C)S1=O | 50.2 µM | 42.1 µM | > 100 µM | 37.4 µM | > 100 µM | 45.4 µM | > 100 µM | 41.9 µM | 49.6 µM |  | 28.7 µM | 18.2 µM | 48.8 µM | 33.4 µM
10 | CCN(CC)CCn1nc(N)c2nc3cc(Cl)ccc3nc21 | > 100 µM | > 100 µM | > 100 µM | > 100 µM | > 100 µM | > 100 µM | > 100 µM | > 100 µM | > 100 µM |  | > 100 µM | > 100 µM | > 100 µM | > 100 µM
11 | CCN1c2nc3ccccc3nc2N(CC)c2nc3ccccc3nc21 | > 100 µM |  | > 100 µM | > 100 µM |  | > 100 µM | > 100 µM | > 100 µM | > 100 µM |  | > 100 µM | > 100 µM | > 100 µM | > 100 µM
12 | COc1cccc(CCn2c(N)c(-c3ccccc3)c3ccc([N+](=O)[O-])cc3c2=O)c1 | 11.7 µM | 24.4 µM | 21 µM | 46.9 µM |  | 27.4 µM | 12.7 µM | 50 µM | 22.7 µM | 11.1 µM | 43.7 µM | 10 µM | > 79 µM | 49.5 µM
13 | CCOC(=O)c1nc2c(Cl)c3ncccc3cc2[nH]c1=O | > 100 µM | > 100 µM | > 100 µM | > 100 µM | > 100 µM | > 100 µM | > 100 µM | > 100 µM | > 100 µM | > 100 µM |  | > 100 µM | > 100 µM | 45.6 µM
14 | Cc1ccc2nc(-c3ccc(N)c(I)c3)sc2c1 | 40.6 µM | > 100 µM | > 100 µM | > 100 µM | 41.9 µM | 34.8 µM |  | > 100 µM | 44.9 µM | > 100 µM |  | > 100 µM | 60.6 µM | > 100 µM
15 | CCOC(=O)C1=C(Nc2cccc(OC)c2)OCC1=O | > 100 µM | > 100 µM | > 100 µM |  | > 100 µM | > 100 µM | > 100 µM | > 100 µM | > 100 µM | > 100 µM |  | > 100 µM | > 100 µM | > 100 µM
16 | N#CSc1nc[nH]c1C(N)=O | > 100 µM | > 100 µM | > 100 µM | > 100 µM | > 100 µM | > 100 µM | > 100 µM | > 100 µM | > 100 µM | > 100 µM | > 100 µM | > 100 µM | > 100 µM | 
17 | Cc1cc(C)cc(C(=N)c2ccccc2Cc2cccc3ccccc23)c1 | 29.3 µM | 32.2 µM | 48.5 µM | 53.5 µM | 33.7 µM | 24.5 µM | 32.2 µM | 34.7 µM | 25.5 µM |  | 54.2 µM | 23.2 µM | > 100 µM | 30.8 µM
